In patent publication US20220187282A1, “CARDIOMYOCYTE PROLIFERATION” (The Council of the Queensland Institute of Medical Research, priority 2019, published 2022):
Counter-ions that a name gives are not always drawn.

Assays:
mature hCOs = assay: mature hCO, cardiomyocyte proliferation (Ki-67 intensity, Ki-67+ α-actinin cardiomyocytes); format: cell-based, human
Procedure: hCOs were cultured in CTRL medium for formation for 5 days and then either kept in CTRL medium culture or changed to maturation medium (Mills et al., 2017a) comprising DMEM without glucose, glutamine and phenol red (ThermoFisher Scientific) supplemented with 4% […](without insulin) (ThermoFisher Scientific), 1% GlutaMAX (ThermoFisher Scientific), 200 μM L-ascorbic acid 2-phosphate sesquimagnesium salt hydrate and 1% Penicillin/Streptomycin (ThermoFisher Scientific), 1 mmol/L glucose and 100 μmon palmitic acid (conjugated to bovine serum albumin within B27 by incubating for 2h at 37° C., Sigma) with changes every 2-3 days.
Whole-Mount Immunostaining hCOs were fixed for 60 min with 1% paraformaldehyde (Sigma) at room temperature and washed 3× with PBS, after which they were incubated with primary antibodies (see Star Methods Table) in Blocking Buffer, 5% FBS and 0.2% Triton-X-100 (Sigma) in PBS overnight at 4° C. Cells were then washed in Blocking Buffer 2× for 2 h and subsequently incubated with secondary antibodies (see Star Methods Table) and Hoechst33342 (1:1000) overnight at 4° C. They were washed in Blocking Buffer 2× for 2 h and imaged in situ or mounted on microscope slides using Fluoromount-G (Southern Biotech).
For screening hCOs were imaged using a Leica DMi8 high content imaging microscope for in situ imaging. Custom batch processing files were written in Matlab R2013a (Mathworks) to remove the background, calculate the image intensity, and export the batch data to an Excel (Microsoft) spreadsheet.
For more detailed images an Olympus IX81 confocal microscope was used for mounted hCO imaging. For cell cycle analysis experiments 3 random fields of view were imaged and manually quantified for proliferation. These were added together to calculate the percentage of hPSC-CM proliferation in each hCO.
Hits were next validated in mature hCOs using a targeted concentration range based on their active concentrations in the initial immature hCO screen (FIG. 3A). Proliferation markers were quantified using high magnification confocal imaging as we found flow cytometry to be inaccurate in hCO (data not shown). Compounds 3, 63 and 65 had no impact on contractile force (FIG. 3B) at concentrations of 3 μM, 0.3 μM and 1 μM, respectively. […] The effects of both compound 3 and compound 65 were reversible, with proliferation ceasing within 5 days of compound withdrawal (FIG. 8B). Therefore, compound 3 (FIG. 3G) and compound 65 (Goldberg et al., 2009) (FIG. 3H) are both capable of inducing bona fide cardiomyocyte proliferation in mature hCOs without adversely affecting contractile properties.

mature hCO = assay: single organoid quantitative proteomics of mature hCO; format: cell-based, human; settings: mature hCO proteomics
Procedure: Single hCO were washed 2× in PBS and snap frozen and stored at −80° C. Tissues were lysed in by tip-probe sonication in 1% SDS containing 100 mM Tris pH 8.0, 10 mM tris(2-carboxyethyl)phosphine, 40 mM 2-chloroacetamide and heated to 95° C. for 5 min. Proteins were purified using a modified Single-Pot Solid-Phase-enhanced Sample Preparation (SP3) strategy (Hughes et al., 2014). Briefly, Proteins were bound to Sera-Mag carboxylate coated paramagnetic beads in 50% acetonitrile containing 0.8% formic acid (v/v) (ThermoFisher Scientific). The beads were washed twice with 70% ethanol (v/v) and once with 100% acetonitrile. Proteins were digested on the beads in 100 mM Tris pH 7.5 containing 10% 2,2,2-Trifluoroethanol overnight at 37° C. with 200 ng of sequencing grade LysC (Wako Chemicals) and trypsin (Sigma). Beads were removed and peptides acidified to 1% trifluoroacetic acid prior to purification by styrene divinyl benzene-reversed phase sulfonated solid phase extraction microcolumns. Peptides were spiked with iRT peptides (Biognosys) and analysed on an Easy-nLC1200 coupled to a Q-Exactive HF in positive polarity mode. Peptides were separated using an in-house packed 75 μm×50 cm pulled column (1.9 μm particle size, C18AQ; Dr Maisch) with a gradient of 2-35% acetonitrile containing 0.1% FA over 120 min at 300 nL/min at 60° C. The instrument was operated in data-independent acquisition (DIA) mode essentially as described previously (Bruderer et al., 2017). Briefly, an MS1 scan was acquired from 350-1650 m/z (120,000 resolution, 3e6 AGC, 50 ms injection time) followed by 20 MS/MS variable sized isolation windows with HCD (30,000 resolution, 3e6 AGC, 27 NCE). A spectral library was created by fractionating a pooled mix of peptides from 10 separate hCO on an inhouse packed 320 μm×25 cm column (3 μm particle size, BEH; Waters) with a gradient of 2-40% acetonitrile containing 10 mM ammonium formate over 60 min at 6 μL/min using an Agilent 1260 HPLC. A total of 12 concatenated fractions were analysed using the identical LC-MS/MS conditions above except the instrument was operated in data-dependent acquisition (DDA) mode. Briefly, an MS1 scan was acquired from 350-1650 m/z (60,000 resolution, 3e6 AGC, 50 ms injection time) followed by 20 MS/MS with HCD (1.4 m/z isolation, 15,000 resolution, 1e5 AGC, 27 NCE). DDA data were processed with Andromeda in MaxQuant v1.5.8.3 (Cox and Mann, 2008) against the human UniProt database (January 2016) using all default settings with peptide spectral matches and protein false discovery rate (FDR) set to 1%. DIA data were processed with Spectronaut v11 (Bruderer et al., 2015) using all default settings with precursor and protein FDR set to 1% and quantification performed at MS2.
Proteomic data were Log 2 transformed and median normalised. Removal of unwanted variation method (RUV) was applied to remove any batch effects (Gagnon-Bartsch et al., 2013). Differential abundance was determined with two sample t-tests with FDR-based multiple hypothesis testing correction. GO analysis was performed with DAVID v6.8 and gene ontology terms from BP_FAT (Huang da et al., 2009) and heat-maps and hierarchical clustering was performed using GENE-E (Broad Institute).
In order to determine the biological processes driving the pro-proliferative effects of our hit compounds, we performed RNA-sequencing (RNA-seq) and single organoid quantitative proteomics (FIG. 4A). These analyses were performed on hCOs treated with compounds 3, 63 and 65 at concentrations of 3 μM, 0.3 μM and 1 μM, respectively. RNA-seq for hCO treated with compounds 3 and 65 clustered distinctly in principal component analysis (FIG. 4B) and regulated a total of 239 and 207 genes (FIG. 9A), respectively.

2D hPSC-CM = 2D hPSC-CM culture, Ki-67 image cytometry (proliferation, number, size); format: cell-based, human; settings: 24 h, 0.5 M mevalonic acid 5-phosphate, 20 μM GGPP, 20 μM FPP, 20 μM squalene
Procedure: Day 15 dissociated differentiation cultures were plated at 100,000 cells/cm2 in 0.1% gelatin coated 96-well tissue culture plates in CTRL medium. For 3 day incubation experiments, after 2 days of culture in CTRL medium, cells were then treated with 10 μM simvastatin in maturation medium for a further 3 days. For 1 day incubation experiments, after 1 day of culture in CTRL medium, cells were treated with 10 μM simvastatin, 0.5 M (±)-Mevalonic acid 5-phosphate lithium salt hydrate, 20 μM geranylgeranyl pyrophosphate, 20 μM farnesyl pyrophosphate and/or 20 μM squalene in maturation medium for a further day.
hCOs were fixed for 10 min with 1% paraformaldehyde (Sigma) at room temperature and washed 3× with PBS, after which they were incubated with primary antibodies (see Star Methods Table) in Blocking Buffer, 5% FBS and 0.2% Triton-X-100 (Sigma) in PBS for 1-2 hours at room temperature. Cells were then washed in Blocking Buffer 2× for 3 min and subsequently incubated with secondary antibodies (see Star Methods Table) and Hoechst33342 (1:1000) for 1 hour at room temperature. They were washed in Blocking Buffer 2× and imaged.
For screening hCOs were imaged using a Leica DMi8 high content imaging microscope for in situ imaging. Custom batch processing files were written in Matlab R2013a (Mathworks) to analyse the number of cardiomyocytes, identify the nuclei of proliferating (Ki-67+) cardiomyocytes and determine the average size of the cardiomyocytes, and export the batch data to an Excel (Microsoft) spreadsheet.
Initial experiments were performed in immature proliferative 2D hPSC-CM (FIG. 6A) using high content imaging (FIG. 6B) and image cytometry analysis (FIG. 13A). HMGCR mediated production of cholesterol metabolites was inhibited with 10 μM simvastatin for 3 days.
In order to determine which metabolites in the mevalonate pathway are critical for proliferation, we performed experiments over 24 hours to enable more precise control of metabolites and to measure the primary effects of the manipulations. In these experiments, the mevalonate pathway was inhibited using 10 μM simvastatin, and then different metabolites were provided within the medium (highlighted in red in FIG. 6F).

[1] = tested on: adult rodent cardiomyocyte; settings: Mohamed et al., 2018; cited from earlier work
kinases = settings: Fan et al., 2016; cited from earlier work

Structure (SMILES): Cc1c[nH]c(-c2cnc(NCCNc3ccc(C#N)cn3)nc2-c2ccc(Cl)cc2Cl)n1 [CHIR99021, reference compound]
- proliferation in mature hCO, compound individually (mature hCOs; 5 μM CHIR99021 or 1 μM compound 51 alone): failed to activate proliferation individually
- proliferation signature proteins (cell cycle network, mevalonate enzymes, nuclear transporters) (mature hCO): only the “cell cycle network” proteins were induced

Structure (SMILES): CC(C)=CCC/C(C)=C/CC/C(C)=C/CC/C(C)=C/COP(=O)(O)OP(=O)(O)O [geranylgeranyl pyrophosphate]
- rescue of proliferation under 10 μM simvastatin (2D hPSC-CM): rescued proliferation

Structure (SMILES): CC(O)(CCOP(=O)(O)O)CC(=O)O (racemic) [mevalonate, (±)-Mevalonic acid 5-phosphate lithium salt hydrate, reference compound]
- proliferation in mature hCO (mature hCOs; 0.5 mM, 2 days): induces proliferation
- rescue of proliferation under 10 μM simvastatin (2D hPSC-CM): rescued proliferation

Structure (SMILES): CC(C)=CCC/C(C)=C/CC/C(C)=C/CC/C=C(\C)CC/C=C(\C)CCC=C(C)C [squalene]
- rescue of proliferation under 10 μM simvastatin (2D hPSC-CM): not

Structure (SMILES): NC(=O)c1ccc(-c2nc(-c3ccc4c(c3)OCO4)c(-c3ccccn3)[nH]2)cc1 [SB431542]
- pro-proliferative activity alone [1]: not sufficient

Structure (SMILES): CC(C)=CCC/C(C)=C/CC/C(C)=C/COP(=O)(O)OP(=O)(O)O [farnesyl pyrophosphate]
- rescue of proliferation under 10 μM simvastatin (2D hPSC-CM): incapable of rescuing proliferation

Structure (SMILES): CN1C(=O)c2sccc2N(C)c2nc(Nc3ccc(S(N)(=O)=O)cc3)ncc21 [XMU-MP-1, reference compound]
- proliferation in mature hCO in combination with GSK3 inhibition (Ki-67 intensity) (mature hCOs; 5 μM CHIR99021 with 1 μM compound 51 or 1 μM XMU-MP-1): synergistic effect on proliferation
- off-target effects on cell cycle proteins (kinases): PLK4 and AURKB
